Data taken from patent US8802664B2 (Bioproject, priority 2010, dated 2014).

Target: T1, human H4 receptor (Homo sapiens, UniProt Q9H3N8)
T1 construct: expressed in transfected cells
Assay: [3H]Histamine binding on membranes of CHO cells stably expressing human H4 receptor
Settings: not given
How it was run: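 Filter-bound counts (liquid scintillation) gave H4 binding. Incubation used 20 μg membrane protein/well in Tris/HCl 50 mM plus EDTA 0.5 mM at pH 7.4, and 10 μM JNJ 7777120 set nonspecific binding. Filtration on GF/B pretreated with polyethyleneimine stopped the reaction.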

T1 sequence (Q9H3N8 whole entry): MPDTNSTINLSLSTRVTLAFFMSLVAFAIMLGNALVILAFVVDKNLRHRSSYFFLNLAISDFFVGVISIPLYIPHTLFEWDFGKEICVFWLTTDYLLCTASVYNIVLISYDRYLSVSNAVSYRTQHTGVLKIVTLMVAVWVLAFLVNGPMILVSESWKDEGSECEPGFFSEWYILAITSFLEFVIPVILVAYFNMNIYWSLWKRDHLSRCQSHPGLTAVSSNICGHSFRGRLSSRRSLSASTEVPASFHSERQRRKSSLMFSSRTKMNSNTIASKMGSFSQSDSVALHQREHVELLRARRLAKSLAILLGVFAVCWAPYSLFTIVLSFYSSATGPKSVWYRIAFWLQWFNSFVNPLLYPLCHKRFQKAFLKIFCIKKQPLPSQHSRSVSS

Compound | Ki or IC50 activity class
CN1CCC(OC(c2cccc(OCc3cc(F)ccc3F)c2)c2nc3ccccc3s2)CC1 (stereo not drawn) [Example 156, 2-[[3-(2,5-difluorobenzyloxy)phenyl](1-methylpiperidin-4-yloxy)methyl]benzothiazole] | < 30 nM
CN1CCC(OC(c2cccc(SCCO)c2)c2nc3ccccc3s2)CC1 (single isomer, unassigned) [Example 229, 2-{3-[benzothiazol-2-yl(1-methylpiperidin-4-yloxy)methyl]phenylsulfanyl}ethanol] | < 30 nM
CC(=O)NC(=N)NCCSc1cccc(C(OC2CCN(C)CC2)c2nc3ccccc3[nH]2)c1 (stereo not drawn) [Example 401, N-acetyl-N′-(2-{3-[(1H-benzimidazol-2-yl)(1-methylpiperidin-4-yloxy)methyl]phenylsulfanyl}ethyl)guanidine] | < 300 nM
CC(=O)NC1CCN(c2cccc(C(OC3CCN(C)CC3)c3nc4ccccc4s3)c2)C1 (stereo not drawn) [Example 408, N-(1-{3-[benzothiazol-2-yl(1-methylpiperidin-4-yloxy)methyl]phenyl}pyrrolidin-3-yl)acetamide] | < 300 nM
Cc1cccc(C(OC2CCN(C)CC2)c2nc3ccccc3s2)c1 (stereo not drawn) [Example 8, 2-[(1-methylpiperidin-4-yloxy)(m-tolyl)methyl]benzothiazole] | < 30 nM
CCCCOc1cccc(C(OC2CCN(C)CC2)c2nc3ccccc3s2)c1 (stereo not drawn) [Example 92, 2-[(3-butoxyphenyl)(1-methylpiperidin-4-yloxy)methyl]benzothiazole] | < 300 nM
CSc1cccc(C(OC2CCN(C)CC2)c2nc3ccccc3s2)c1 (stereo not drawn) [Example 201, 2-[(1-methylpiperidin-4-yloxy)(3-methylsulfanyl-phenyl)methyl]benzothiazole] | < 30 nM
CN1CCC(NC(c2cccc(Oc3ccccc3)c2)c2nc3ccccc3[nH]2)CC1 (stereo not drawn) [Example 85, [(1H-benzimidazol-2-yl)(3-phenoxyphenyl)methyl](1-methylpiperidin-4-yl)amine] | < 300 nM
CN1CCC(OC(c2cccc(CCCCNC(=N)NC(=O)OC(C)(C)C)c2)c2nc3ccccc3[nH]2)CC1 (stereo not drawn) [Example 309, N-tert-butoxycarbonyl-N′-(4-{3-[(1H-benzimidazol-2-yl)(1-methylpiperidin-4-yloxy)methyl]phenyl}butyl)guanidine] | < 300 nM
CN1CCC(OC(c2cccc(OCc3cccc([N+](=O)[O-])c3)c2)c2nc3ccccc3s2)CC1 (stereo not drawn) [Example 196, 2-{(1-methylpiperidin-4-yloxy)[3-(3-nitro-benzyloxy)phenyl]methyl}benzothiazole] | < 30 nM
CN1CCC(OC(c2cccc(SCCCNC(=N)N)c2)c2nc3ccccc3[nH]2)CC1 (stereo not drawn) [Example 441, N-(3-{3-[(1H-benzimidazol-2-yl)(1-methylpiperidin-4-yloxy)methyl]phenylsulfanyl}propyl)guanidine] | < 30 nM
Cc1cccc(C(NC2CCN(C)CC2)c2nc3ccccc3s2)c1 (stereo not drawn) [Example 21, [(benzothiazol-2-yl)(m-tolyl)methyl](1-methylpiperidin-4-yl)amine] | < 300 nM
CN1CCC(OC(c2ccc(N)cc2)c2nc3ccccc3[nH]2)CC1 (stereo not drawn) [Example 455, 4-[(1H-benzimidazol-2-yl)(1-methylpiperidin-4-yloxy)methyl]aniline] | < 30 nM
CN1CCC(OC(c2cccc(CCCCCCNC(=N)N)c2)c2nc3ccccc3[nH]2)CC1 (stereo not drawn) [Example 355, N-(6-{3-[(1H-benzimidazol-2-yl)(1-methylpiperidin-4-yloxy)methyl]phenyl}hexyl)guanidine] | < 300 nM
Cc1ccccc1COc1cccc(C(NC2CCN(C)CC2)c2nc3ccccc3[nH]2)c1 (stereo not drawn) [Example 129, {(1H-benzimidazol-2-yl)[3-(2-methylbenzyloxy)phenyl]methyl}(1-methylpiperidin-4-yl)amine] | < 30 nM
CN1CCC(OC(c2cccc(-c3c[nH]nn3)c2)c2nc3ccccc3[nH]2)CC1 (stereo not drawn) [Example 198, 2-{(1-methylpiperidin-4-yloxy)[3-(1H-[1,2,3]triazol-4-yl)phenyl]methyl}-1H-benzimidazole] | < 30 nM
CN1CCC(OC(c2cccc(OCc3ccccn3)c2)c2nc3ccccc3s2)CC1 (stereo not drawn) [Example 283, 2-{(1-methylpiperidin-4-yloxy)[3-(pyridin-2-ylmethoxy)phenyl]methyl}benzothiazole] | < 30 nM
CN1CCC(OC(c2cccc(CCCCCN)c2)c2nc3ccccc3s2)CC1 (stereo not drawn) [Example 289, 5-{3-[benzothiazol-2-yl(1-methylpiperidin-4-yloxy)methyl]phenyl}pentylamine] | < 30 nM
CN1CCC(OC(c2cccc(N3CCC(N)CC3)c2)c2nc3ccccc3s2)CC1 (stereo not drawn) [Example 405, 1-{3-[benzothiazol-2-yl(1-methylpiperidin-4-yloxy)methyl]phenyl}piperidin-4-ylamine] | < 300 nM
CN1CCC(OC(c2cccc(OCC3CCCN(C)C3)c2)c2nc3ccccc3s2)CC1 (stereo not drawn) [Example 379, 2-[[3-(1-methylpiperidin-3-ylmethoxy)phenyl](1-methylpiperidin-4-yloxy)methyl]benzothiazole] | < 1000 nM

Compound | Ki or IC50 activity class
CN1CCC(NC(c2cc3ccccc3o2)c2nc3ccccc3s2)CC1 (stereo not drawn) [Example 37, [(benzofuran-2-yl)(benzothiazol-2-yl)methyl](1-methylpiperidin-4-yl)amine] | < 1000 nM
CN1CCC(OC(c2cccc(-c3ccccc3)c2)c2nc3ccccc3s2)CC1 (stereo not drawn) [Example 53, 2-[biphenyl-3-yl(1-methylpiperidin-4-yloxy)methyl]benzothiazole] | < 300 nM
CN1CCC(OC(c2cccc(CCC(=O)OC(C)(C)C)c2)c2nc3ccccc3s2)CC1 (stereo not drawn) [Example 208, 3-{3-[benzothiazol-2-yl(1-methylpiperidin-4-yloxy)methyl]phenyl}propionic acid tert-butyl ester] | < 300 nM
CN1CCC(OC(c2cccc(SCCCCCCO)c2)c2nc3ccccc3[nH]2)CC1 (stereo not drawn) [Example 295, 6-{3-[(1H-benzimidazol-2-yl)(1-methylpiperidin-4-yloxy)methyl]phenylsulfanyl}hexan-1-ol] | < 300 nM
CN1CCC(OC(c2cccc(C#CCCNC(=N)N)c2)c2nc3ccccc3[nH]2)CC1 (stereo not drawn) [Example 393, N-(4-{3-[(1H-benzimidazol-2-yl)(1-methylpiperidin-4-yloxy)methyl]phenyl}but-3-ynyl)guanidine] | < 30 nM
CN1CCC(OC(c2cccc(CO)c2)c2nc3ccccc3s2)CC1 (stereo not drawn) [Example 207, {3-[benzothiazol-2-yl(1-methylpiperidin-4-yloxy)methyl]phenyl}methanol] | < 1000 nM
CN1CCC(OC(c2cccc(OCCO)c2)c2nc3ccccc3s2)CC1 (stereo not drawn) [Example 244, 2-{3-[benzothiazol-2-yl(1-methylpiperidin-4-yloxy)methyl]phenoxy}ethanol] | < 300 nM
CN1CCC(OC(c2cccc(OCCN3CCN(C(=O)OC(C)(C)C)CC3)c2)c2nc3ccccc3[nH]2)CC1 (stereo not drawn) [Example 369, 4-(2-{3-[(1H-benzimidazol-2-yl)(1-methylpiperidin-4-yloxy)methyl]phenoxy}ethyl)piperazine-1-carboxylic acid tert-butyl ester] | < 1000 nM
CN1CCC(NC(c2cccc(OCCCC3(C)OCCO3)c2)c2nc3ccccc3[nH]2)CC1 (stereo not drawn) [Example 174, ((1H-benzimidazol-2-yl)-{3-[3-(2-methyl-[1,3]dioxolan-2-yl)-propoxy]phenyl}methyl)(1-methylpiperidin-4-yl)amine] | < 300 nM
CN1CCC(OC(c2ccccc2)c2nc3cc(F)ccc3s2)CC1 (stereo not drawn) [Example 33, 5-fluoro-2-[(1-methylpiperidin-4-yloxy)phenylmethyl]benzothiazole] | < 300 nM
CN1CCC(OC(c2cccc(CCCCN)c2)c2nc3ccccc3s2)CC1 (stereo not drawn) [Example 366, 4-{3-[benzothiazol-2-yl(1-methylpiperidin-4-yloxy)methyl]phenyl}butylamine] | < 30 nM
CN1CCC(OC(c2cccc(N3CCC(O)C3)c2)c2nc3ccccc3[nH]2)CC1 (stereo not drawn) [Example 452] | < 300 nM
CN1CCC(OC(c2cccc(SCCCCCCNC(=N)N)c2)c2nc3ccccc3[nH]2)CC1 (stereo not drawn) [Example 458] | < 300 nM
CN1CCC(OC(c2cccc(SCCCCCN)c2)c2nc3ccccc3s2)CC1 (stereo not drawn) [Example 305, 5-{3-[benzothiazol-2-yl(1-methylpiperidin-4-yloxy)methyl]phenylsulfanyl}pentylamine] | < 30 nM
CN1CCC(NC(c2cccc(I)c2)c2nc3ccccc3s2)CC1 (stereo not drawn) [Example 48, [benzothiazol-2-yl(3-iodophenyl)methyl](1-methylpiperidin-4-yl)amine] | < 300 nM
CN1CCC(OC(c2cccc(CCC3CCNCC3)c2)c2nc3ccccc3[nH]2)CC1 (stereo not drawn) [Example 396, 2-{(1-methylpiperidin-4-yloxy)[3-(2-piperidin-4-yl-ethyl)phenyl]methyl}-1H-benzimidazole] | < 1000 nM
CN1CCC(OC(c2cccc(N3CC4CC(F)CC4C3)c2)c2nc3ccccc3s2)CC1 (stereo not drawn) [Example 492] | < 1000 nM
CN1CCC(OC(c2cccc(C=CC#N)c2)c2nc3ccccc3s2)CC1 (stereo not drawn) [Example 217, 3-{3-[benzothiazol-2-yl(1-methylpiperidin-4-yloxy)methyl]phenyl}acrylonitrile] | < 300 nM
CN1CCC(OC(c2cccc(SCCCN)c2)c2nc3ccccc3s2)CC1 (stereo not drawn) [Example 314, 3-{3-[benzothiazol-2-yl(1-methylpiperidin-4-yloxy)methyl]phenylsulfanyl}propylamine] | < 30 nM
CN1CCC(OC(c2ccc3ccccc3c2)c2nc3ccccc3s2)CC1 (stereo not drawn) [Example 18, 2-[(1-methylpiperidin-4-yloxy)naphthalen-2-ylmethyl]benzothiazole] | < 300 nM

Same assay, conditions: human H4 receptor; evaluated in the GTPγ[35S] assay or in the [3H]histamine binding assay (not stated which per compound); Ki or IC50 class

Compound | Ki or IC50 activity class
4-[benzothiazol-2-yl(3-bromo-phenyl)methoxy]-1,1-dimethylpiperidinium [Example 188] | < 30 nM
CN1CCC(OC(c2cccc(N3CCC(F)C3)c2)c2nc3ccccc3s2)CC1 (stereo not drawn) [Example 454] | < 30 nM
